From the supplement of paper PMC13207355
Counter-ions that a name gives are not always drawn.

Tests used:
Settings in all cases: exposure time: 72 h
[1] = test system: E13 (patient-derived glioblastoma stem cells of classical subtype); experiment: surviving fraction (nuclei count normalised to DMSO); higher = more cells surviving (less toxic)
[2] = test system: E21 (patient-derived glioblastoma stem cells of mesenchymal subtype); experiment: as above
[3] = test system: E28 (patient-derived glioblastoma stem cells of classical subtype); experiment: as above
[4] = test system: E31 (patient-derived glioblastoma stem cells of proneural subtype); experiment: as above
[5] = test system: E34 (patient-derived glioblastoma stem cells of proneural subtype); experiment: as above
[6] = test system: E57 (patient-derived glioblastoma stem cells of mesenchymal subtype); experiment: as above
[7] = test system: FT3469 (normal neural stem cell line); experiment: as above
[8] = test system: E13; experiment: phenotypic distance (Euclidean, principal components) from DMSO controls (arbitrary units); higher = stronger morphological change
[9] = test system: E21; experiment: as above
[10] = test system: E28; experiment: as above
[11] = test system: E31; experiment: as above
[12] = test system: E34; experiment: as above
[13] = test system: E57; experiment: as above
[14] = test system: FT3469; experiment: as above
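Throughout, for phenotypic distance (Euclidean, principal components) from DMSO controls: cell Painting imaging in 384-well plates, CellProfiler features reduced to at least 20 principal components, Euclidean distance versus same-plate DMSO vehicle wells (0.1% v/v), median over six images per well.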
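Throughout, for surviving fraction (nuclei count normalised to DMSO): nuclei counted by high-content imaging of Hoechst-stained cells in laminin-coated 384-well plates, relative to 0.1% DMSO vehicle wells, with staurosporine as cell-death control.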

CCCCC(CC)CNC(=N)NC(=N)NCCCCCCNC(=N)NC(=N)NCC(CC)CCCC (stereo not drawn) [Alexidine dihydrochloride]
Settings | phenotypic distance | surviving fraction
[1], 4.1 nM | – | 0.884
[1], 12.3 nM | – | 0.905
[1], 37 nM | – | 0.978
[1], 111.1 nM | – | 0.877
[1], 333.3 nM | – | 0.607
[1], 1000 nM | – | 0.602
[1], 3000 nM | – | 0.0804
[2], 4.1 nM | – | 0.967
[2], 12.3 nM | – | 0.916
[2], 37 nM | – | 0.945
[2], 111.1 nM | – | 1.02
[2], 333.3 nM | – | 1.07
[2], 1000 nM | – | 0.368
[2], 3000 nM | – | 0.00297
[3], 4.1 nM | – | 0.911
[3], 12.3 nM | – | 0.933
[3], 37 nM | – | 0.847
[3], 111.1 nM | – | 1.04
[3], 333.3 nM | – | 0.694
[3], 1000 nM | – | 0.233
[3], 3000 nM | – | 0.0064
[4], 4.1 nM | – | 0.955
[4], 12.3 nM | – | 0.825
[4], 37 nM | – | 1.1
[4], 111.1 nM | – | 1.02
[4], 333.3 nM | – | 0.871
[4], 1000 nM | – | 0.125
[4], 3000 nM | – | 0.013
[5], 4.1 nM | – | 0.86
[5], 12.3 nM | – | 1.11
[5], 37 nM | – | 0.972
[5], 111.1 nM | – | 0.991
[5], 333.3 nM | – | 0.939
[5], 1000 nM | – | 0.512
[5], 3000 nM | – | 0.0472
[6], 4.1 nM | – | 1.01
[6], 12.3 nM | – | 1.01
[6], 37 nM | – | 0.91
[6], 111.1 nM | – | 1.03
[6], 333.3 nM | – | 0.828
[6], 1000 nM | – | 0.252
[6], 3000 nM | – | 0.00967
[7], 4.1 nM | – | 0.76
[7], 12.3 nM | – | 0.814
[7], 37 nM | – | 0.863
[7], 111.1 nM | – | 1.16
[7], 333.3 nM | – | 0.863
[7], 1000 nM | – | 0.504
[7], 3000 nM | – | 0.0403
[8], 4.1 nM | 0.582 | –
[8], 12.3 nM | 0.387 | –
[8], 37 nM | 0.788 | –
[8], 111.1 nM | 0.757 | –
[8], 333.3 nM | 1.76 | –
[8], 1000 nM | 1.39 | –
[8], 3000 nM | 10.1 | –
[9], 4.1 nM | 0.597 | –
[9], 12.3 nM | 1.12 | –
[9], 37 nM | 0.958 | –
[9], 111.1 nM | 0.651 | –
[9], 333.3 nM | 0.84 | –
[9], 1000 nM | 4.98 | –
[9], 3000 nM | 19 | –
[10], 4.1 nM | 1.07 | –
[10], 12.3 nM | 0.612 | –
[10], 37 nM | 0.518 | –
[10], 111.1 nM | 0.461 | –
[10], 333.3 nM | 1.31 | –
[10], 1000 nM | 3.13 | –
[10], 3000 nM | 12.9 | –
[11], 4.1 nM | 0.786 | –
[11], 12.3 nM | 0.686 | –
[11], 37 nM | 1.01 | –
[11], 111.1 nM | 0.884 | –
[11], 333.3 nM | 0.669 | –
[11], 1000 nM | 5.57 | –
[11], 3000 nM | 11.7 | –
[12], 4.1 nM | 1.35 | –
[12], 12.3 nM | 1.19 | –
[12], 37 nM | 0.769 | –
[12], 111.1 nM | 0.582 | –
[12], 333.3 nM | 0.858 | –
[12], 1000 nM | 4.01 | –
[12], 3000 nM | 14.9 | –
[13], 4.1 nM | 0.655 | –
[13], 12.3 nM | 0.696 | –
[13], 37 nM | 0.435 | –
[13], 111.1 nM | 0.715 | –
[13], 333.3 nM | 1.53 | –
[13], 1000 nM | 6.34 | –
[13], 3000 nM | 10.4 | –
[14], 4.1 nM | 1.28 | –
[14], 12.3 nM | 1.28 | –
[14], 37 nM | 1.13 | –
[14], 111.1 nM | 0.545 | –
[14], 333.3 nM | 1.44 | –
[14], 1000 nM | 2.26 | –
[14], 3000 nM | 11.7 | –
